According to paper PMC5341572, “Self-Assembly and Anti-Amyloid Cytotoxicity Activity of Amyloid beta Peptide Derivatives” (Scientific Reports, 2017):
Where “and” joins values, the source holds several entries; their conditions need not be identical. Identical values can stand only once. Entries after “also recorded” stand apart in the source; their conditions may differ.

Legend:
Aβ(1–42) = target: T1, Aβ(1–42) (Homo sapiens, UniProt P05067); test: CD spectroscopy of Aβ(1–42) secondary structure on addition of peptide; conditions: Aβ(1–42):peptide molar ratio 1:1.2 for peptide 1 and 1:1.6 for peptide 2; Tris buffer pH 7.4
T1 construct: purchased American Peptide Inc. (Sunnyvale, USA)
T1 sequence (P05067 672-713): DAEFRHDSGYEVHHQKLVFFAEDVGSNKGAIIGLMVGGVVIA
Description: HFIP was then evaporated under a slow stream of N2.
CD spectra were recorded using a Chirascan spectropolarimeter (Applied Photophysics, UK). Peptide solutions were placed in a cover slip cuvette (1 × 10^−2 or 0.1 mm thick), spectra presented being with absorbance A < 2 at any measured point with a 0.5 nm step, 1 nm bandwidth, and 1 s collection time per step. The CD signal from the background was subtracted from the CD data of the sample solutions. […] CD experiments were performed using a Quartz cuvette with 1mm path length.

[1] = ANS fluorescence assay for critical aggregation concentration (cac); type: physicochemical; conditions: discontinuity in concentration-dependent ANS fluorescence; 74 μM ANS solution, λex 356 nm, spectra 400-670 nm
Description: 8-anilo-1-naphthalenesulfonic acid (ANS) and thioflavin T (ThT) fluorescence were used to locate the critical aggregation concentration (cac). Spectra were recorded with a Varian Cary Eclipse fluorescence spectrometer with samples in 4 mm inner width quartz cuvettes. The ANS fluorophore is a probe sensitive to the hydrophobicity of its surrounding environment, making it suitable to determine the cac. ANS assays were performed measuring spectra from 400 to 670 nm (λex = 356 nm), using a 74 μM ANS solution to solubilize the peptide. ThT fluorescence depends on the formation of amyloid-like structures[36][37] (β-sheet fibrils) and is used for amyloid fibril-forming peptides. For the ThT assay, the spectra were recorded from 460 to 600 nm using an excitation wavelength of λex = 440 nm, and the peptide was dissolved in a 5.0 × 10^−3 wt % ThT solution.

[2] = ESI mass spectrometry of peptide oligomerisation with and without HFIP; type: physicochemical
Description: Samples were diluted to 0.029 wt % peptide in both H2O and HFIP:H2O (1:9; v/v). ESI mass spectra were acquired in positive ion mode on a Synapt G2-Si instrument (Waters Corporation, Wilmslow, UK). The employed Z-spray ESI source (Waters Corporation, Wilmslow, UK) was operated at 1.8 kV and the ESI sample solutions were infused at 10 μL/min using a KD Scientific syringe pump (KD Scientific Inc., Holliston, USA). The desolvation and source temperature were 150 °C and 80 °C, respectively, and the cone voltage was set to 40 V. ESI mass spectra were acquired in triplicate in sensitivity mode with the exception of higher resolution mass spectra, which were acquired once in resolution mode with ion mobility separation enabled. For the latter, wave velocity and wave height were set to 650 m/s and 40 V, respectively, and the helium and nitrogen flow rates were 180 and 90 mL/min, respectively. The acquired data was converted to mzML format using the msconvert tool from the ProteoWizard software package. In-house developed software based on the pymzML software library[62] was used to extract the integrated isotopomer signal intensities of interest from the converted data files. The integrated ion signal intensities of the monomer (SM) and all oligomers (SO) were summed for each acquired spectrum to determine the total ion signal intensity of the analysed peptide species (ST):
The relative extent of oligomerisation (EO) was determined by dividing the integrated ion signal intensities of the oligomers (SO) by the total ion signal intensity of the analysed peptide (ST): […]

[3] = tested on: primary rat cortical neurons; test: MTS neurotoxicity assay with primary neurons; type: cell-based; conditions: final Aβ 20 μM, 20 h
[4] = tested on: SH-SY5Y neuroblastoma cells; test: MTS neurotoxicity assay with SH-SY5Y cells; type: cell-based; conditions: 24 h
Description: SH-SY5Y neuroblastoma cells were maintained in a 1:1 ratio of Ham’s F12 and Dulbecco’s Modified Eagle Medium with 10% foetal calf serum and penicillin/streptomycin at 37 °C and 5% CO2. At 85–95% confluence the cells were detached from their growth substrate using trypsin and the growth medium was removed following centrifugation of the cells at 500xg for five minutes. The cells were re-suspended in a serum-free medium (Optimem with penicillin/streptomycin) and distributed at 20,000 cells per well in a 96-well plate then incubated at 37 °C, 5% CO2 for a further 24 hours. […] Cells were incubated for a further 24 hours as above and then assayed for cell survival using an MTS based assay (CellTiter 96 AQueous One Solution Cell Proliferation Assay from Promega).

[5] = peptide to Aβ(1–42) ratio 1:2 (2.5 μM peptide, 5 μM Aβ)
[6] = peptide to Aβ(1–42) ratio 1:5 (1 μM peptide, 5 μM Aβ)
[7] = peptide to Aβ(1–42) ratio 1:20 (0.25 μM peptide, 5 μM Aβ)

Compound | β-sheet minimum (216 nm) in CD spectrum of Aβ(1–42) upon addition of peptide (Aβ(1–42)) | critical aggregation concentration (cac), ANS assay (hydrophobic collapse) [1] | aggregation state n of self-assemblies (oligomers) seen by ESI MS ([2]; 0.029 wt% peptide) | relative extent of oligomerisation (Eo)H2O ([2]; 0.029 wt% peptide in H2O, positive-ion ESI MS, oligomer signal / total peptide signal, spectra in triplicate) | relative extent of oligomerisation (Eo)HFIP ([2]; 0.029 wt% peptide in HFIP:H2O (1:9 v/v), positive-ion ESI MS, oligomer signal / total peptide signal, spectra in triplicate) | effect on viability of Aβ(1–42)-treated neurons ([3]; Aβ:peptide 1:1 (equimolarity), co-incubated 72 h with 100 μM Aβ(1–42)) | improvement of viability of Aβ(1–42)-treated neurons ([3]; Aβ:peptide molar ratio 1:1.5, co-incubated 72 h, p < 0.05) | effect on Aβ(1–42) cytotoxicity, in words [4, 5] | effect on Aβ(1–42) cytotoxicity, in words [4, 6] | effect on Aβ(1–42) cytotoxicity, in words [4, 7] | effect of peptide alone on cells, in words ([4]; 2.5 μM peptide in the absence of Aβ(1–42)) | effect on Aβ(1–42) cytotoxicity, in words ([4]; peptide to Aβ(1–42) ratio 1:2 (2.5 μM peptide, 5 μM Aβ), listed as Peptide 2)
CC(C)C[C@H](NC(=O)[C@@H](N)CCCCN)C(=O)N[C@H](C(=O)N[C@@H](Cc1ccccc1)C(=O)N[C@@H](Cc1ccccc1)C(N)=O)C(C)C [peptide 1, NH2-KLVFF-CONH2] | significantly reduced | 1.00 ± 5 × 10^−2 wt% and ~ 1 wt% | ≤ 7 | 0.040 ± 0.002 | 0.046 ± 0.002 | no effect | ~ 70% | block the cytotoxic effect | not very effective; also recorded: no protective effect | not very effective; also recorded: no protective effect |  | 
CC(C)C[C@H](NC(=O)[C@@H](N)CCCCNC(=O)OC(C)(C)C)C(=O)N[C@H](C(=O)N[C@@H](Cc1ccccc1)C(=O)N[C@@H](Cc1ccccc1)C(N)=O)C(C)C [peptide 2, NH2-K(Boc)LVFF-CONH2] |  |  |  |  |  |  |  | block the cytotoxic effect | positive effect | positive effect | negative effect | rescues the cells
